What was measured:
Type in all cases: cell-based, avian
DF-1 cells [1] = assay: Prestress force: constitutive isometric tension on collagen membranes; settings: 3 μM cytochalasin D
Protocol: Prestress was determined by the measured loss of constitutive isometric tension in response to cytochalasin D. Isometric tension was measured in cultured DF-1 cells inoculated on the surface of polymerized type 1 collagen membranes as described by Bodmer (1997). Isometric tension was simultaneously monitored in 2 separate isometric vectors to account for the presence of anisotropic tension. Constitutive tension was measured in cell-collagen lattices under unloaded conditions. To determine the optimal length-tension relationship during the unloaded state, the collagen gel was stretched with a micromanipulator that was attached to the transducer until a 10 mg increase in force was observed. The gel was progressively unloaded until no further decline in preload was observed. The length (Carson et al., 1989) of the gel was chosen as the no-load state. […] The constitutive tension was defined as the measured loss in tension upon the addition of cytochalasin D.
Since expression of wild-type human 1-CaD stabilizes membrane capacitance, it was next asked whether this enhancement was attributed to a reduction in myosin ATPase activity. […] Constitutive tension was measured under isometric no-load conditions in order to be consistent with the mechanical state at which transcellular resistance was measured. […]

DF-1 cells [2] = assay: Transcellular resistance of confluent monolayers on microelectrode (adenovirus system); settings: 3 μM cytochalasin D vs virus at MOI of 200
Protocol: Quantitative transcellular impedance measurements were acquired in real-time using a previously reported technique of inoculating cultured cells grown on the surface of microelectrodes coated with 100 μg/ml of fibronectin (Moy et al., 2002, Moy et al., 1998, Moy et al., 1996, Moy et al., 2000). A 1-volt, 4000 Hz AC signal was supplied through a 1-M Ω resistor to approximate a constant-current source. Voltage and phase data were measured with a SRS830 lock-in amplifier (Stanford Instruments) and then later stored and processed with a personal computer. The in-phase voltage, proportional to the resistance, and the out-of-phase voltage, proportional to the capacitive reactance, were measured. For most situations, resistance is reported because it is most sensitive to cytoskeletal-membrane properties. […] A uniform number of viable cells (˜650,000 cells per sample), which was determined by the amount of cells that excluded trypan blue, were inoculated on the electrode to control for the effect of cell viability. Transcellular resistance was measured as a fractional change and normalized to the cell resistance of wild-type DF-1 cells. Transcellular resistance was measured at 15 hours for inter-subject comparisons—a time point at which transcellular resistance was at steady state. […]

DF-1 cells [3] = assay: Numerical modeling of transcellular impedance (α, Rb, Cm); settings: 3 μM cytochalasin D, wild-type DF-1 cells
Source text: A numerical analysis was used to calculate specific cell-cell and cell-substrate adhesion and membrane capacitance based on the measured transcellular impedance. The procedure is described in more detail elsewhere for endothelial cells (Moy et al., 2002, Moy et al., 2000), fibroblasts (Giaever and Keese, 1991), and for epithelial cells (Lo et al., 1995). The total impedance across a cell-covered electrode is composed of the impedance created between the ventral surface of the cell and the electrode (related to α and due to cell-matrix adhesion), the impedance created between cells (indicated by Rb and due to cell-cell adhesion), the transcellular impedance created from transcellular current conduction (Zm) and the impedance of a naked electrode (Zn). For these calculations, Zm is inversely related to membrane capacitance (Cm), which is dependent upon membrane convolution, which, in turn, is dependent on the cortical cytoskeleton. The data was expressed as a ratio of the real or imaginary measurement of cell-covered electrode to a naked electrode as a function of current frequency between 25 to 60,000 Hz. A calculated real and imaginary value was generated from the solutions of α, Rb and Cm obtained from a multi-response Levenberg-Maquardt non-linear optimization model of the real, imaginary, real and imaginary (in complex form) and real and imaginary (in magnitude form) data. An error evaluation was calculated using a Chi square analysis of the squared sum of the calculated and the experimental residuals as a function of current frequency. […]
Using a previously reported mathematical model, it was next evaluated whether the difference in 1-CaD-mediated change in transcellular resistance was due to effects on cell-cell, cell-matrix adhesion, membrane capacitance or a combination of all three. […] A calculated resistance and capacitance was generated from iterative solutions of α, Rb and Cm obtained from a multi-response Levenberg-Maquardt non-linear optimization model of the real and/or imaginary data. […]

DF-1 cells [4] = assay: In vitro wound closure assay to measure cell motility; settings: mechanical wounding
Protocol: DF-1 cell motility was measured by wounding the cell monolayer and measuring wound closure by monitoring the traversed distance over time. DF-1 cells were plated at 70% confluence on glass cover slips coated with 100 μg/ml of fibronectin. These cells were then transfected with Ad-CaD or Ad-empty and allowed to grow to 100% confluence (2 days post-transfection). A wound was made in the monolayer using a sterile pipette tip with an outer diameter of 300 μm. The same area was captured sequentially at time intervals of 0, 1, 3, and 6 hours under phase contrast microscopy. The migrated distance was assessed at 3 locations that were separated by equal distance. Cell motility was determined as the average velocity for the 3 measurements for each time point. […]
It was next evaluated whether human wild-type 1-CaD expression disturbs cytopathic effects such as wound closure. Cell motility in response to mechanical wounding was measured to address this question. […] Cultured monolayers were subjected to mechanical wounding with a glass pipette and time-lapse images of cell motility were recorded over a period of several hours. Each image was equally divided into 3 regions, and the leading edge of cell migration was measured for each time point. Cell motility for each time point was determined as the average velocity measured for each of 3 regions. […]

DF-1 cells [5] = assay: Cell viability assay, trypan blue; settings: 48 hrs, 200 MOI virus or 3 μM cytochalasin D
Protocol: Cultured cells were transfected with Ad-CaD or the controlled virus using a calcium phosphate co-precipitation technique. Cells were washed free of virus and incubated for additional 48 hours in serum containing medium. Transfected cells were exposed to trypan blue dye and the fraction of viable cells was quantitated. Viability of cells transfected with Ad-CaD and controlled virus was compared to the cell viability measured in monolayers exposed to cytochalasin for the same corresponding period.

For `C=C1[C@@H](C)[C@H]2[C@H](Cc3ccccc3)NC(=O)[C@]23[C@H](OC(C)=O)/C=C/[C@@](C)(O)C(=O)[C@@H](C)C/C=C/[C@H]3[C@@H]1O` [Cytochalasin D], the Constitutive tension (DF-1 cells [1]) was “abolished constitutive tension”, the Transcellular resistance (DF-1 cells [2]) was “greater loss in transcellular resistance than cells transfected with Ad-CaD or controlled virus” and the “Cm (membrane capacitance)” value (DF-1 cells [3]) was “statistically significant increase in Cm”. The “Rb (cell-cell adhesion)” value (DF-1 cells [3]) was “decrease in α and Rb”, the “α (cell-matrix adhesion)” value (DF-1 cells [3]) was “decrease in α and Rb” and the Wound repair (DF-1 cells [4]) was “completely inhibited wound repair”. For the same compound, the “Cell viability / cell death” value (DF-1 cells [5]) was “decreased cell viability in a statistically significant manner”.
